Assay results published in ChEMBL document CHEMBL1201862, “PubChem BioAssay data set” (2004).
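96-well plates; 48 h exposure; 5 concentrations. Endpoints by linear interpolation between flanking doses. Not reached: highest tested concentration assigned. Abbreviation: GI50, concentration required for 50% inhibition of growth.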 Calls of active or inactive are those of the source. No stated cut-off is given here; in the data, active = GI50 up to about 1.1 µM and inactive = higher.

Key:
Assay in all cases: NCI anticancer screen, dose series, 48 h
[1] = system: K562
[2] = system: SN12C
[3] = system: MDA-MB-231
[4] = system: A549
[5] = system: SK-MEL-28
[6] = system: HCT-116
[7] = system: UACC-257
[8] = system: SF-295
[9] = system: T47D
[10] = system: EKVX
[11] = system: SW-620
[12] = system: SK-MEL-5
[13] = system: OVCAR-8
[14] = system: Hs-578T
[15] = system: SF-539
[16] = system: M14
[17] = system: 786-0
[18] = system: NCI-H23
[19] = system: BT-549
[20] = system: OVCAR-4
[21] = system: HL-60
[22] = system: KM12
[23] = system: NCI-H460
[24] = system: UACC-62
[25] = system: HT-29
[26] = system: PC-3
[27] = system: HOP-62
[28] = system: HCC 2998
[29] = system: U-251
[30] = system: Malme-3M
[31] = system: ACHN
[32] = system: SNB-75
[33] = system: SK-OV-3
[34] = system: MCF7
[35] = system: CAKI-1
[36] = system: TK-10
[37] = system: SR
[38] = system: NCI/ADR-RES
[39] = system: DU-145
[40] = system: NCI-H522
[41] = system: SF-268
[42] = system: COLO 205
[43] = system: OVCAR-3
[44] = system: HCT-15
[45] = system: IGROV-1
[46] = system: MDA-N
[47] = system: RPMI-8226
[48] = system: HOP-92
[49] = system: SNB-19
[50] = system: UO-31
[51] = system: MOLT-4
[52] = system: SK-MEL-2
[53] = system: MDA-MB-435
[54] = system: CCRF-CEM
[55] = system: OVCAR-5
[56] = system: LOX IMVI

Question: How did the GI50 [1] turn out when `O=CNc1ccc(S(=O)(=O)c2ccc(NC=O)cc2)cc1` was run?
Answer: > 100 µM (inactive)

Question: And the GI50 [2]?
Answer: > 100 µM (inactive)

Question: And the GI50 [3]?
Answer: > 100 µM (inactive)

Question: What about the GI50 [4] of the same compound?
Answer: > 100 µM (inactive)

Question: What about the GI50 [5] of the same compound?
Answer: > 100 µM (inactive)

Question: And the GI50 [6]?
Answer: > 100 µM (inactive)

Question: What about the GI50 [7] of the same compound?
Answer: > 100 µM (inactive)

Question: What about the GI50 [8] of the same compound?
Answer: > 100 µM (inactive)

Question: What about the GI50 [9] of the same compound?
Answer: > 100 µM (inactive)

Question: And the GI50 [10]?
Answer: > 100 µM (inactive)

Question: And the GI50 [11]?
Answer: > 100 µM (inactive)

Question: What about the GI50 [12] of the same compound?
Answer: > 100 µM (inactive)

Question: What about the GI50 [13] of the same compound?
Answer: > 100 µM (inactive)

Question: And the GI50 [14]?
Answer: > 100 µM (inactive)

Question: What about the GI50 [15] of the same compound?
Answer: > 100 µM (inactive)

Question: And the GI50 [16]?
Answer: > 100 µM (inactive)

Question: What about the GI50 [17] of the same compound?
Answer: > 100 µM (inactive)

Question: What about the GI50 [18] of the same compound?
Answer: > 100 µM (inactive)

Question: What about the GI50 [19] of the same compound?
Answer: > 100 µM (inactive)

Question: What about the GI50 [20] of the same compound?
Answer: > 100 µM (inactive)

Question: And the GI50 [21]?
Answer: > 100 µM (inactive)

Question: And the GI50 [22]?
Answer: > 100 µM (inactive)

Question: What about the GI50 [23] of the same compound?
Answer: > 100 µM (inactive)

Question: What about the GI50 [24] of the same compound?
Answer: > 100 µM (inactive)

Question: And the GI50 [25]?
Answer: > 100 µM (inactive)

Question: And the GI50 [26]?
Answer: > 100 µM (inactive)

Question: What about the GI50 [27] of the same compound?
Answer: > 100 µM (inactive)

Question: And the GI50 [28]?
Answer: > 100 µM (inactive)

Question: And the GI50 [29]?
Answer: > 100 µM (inactive)

Question: What about the GI50 [30] of the same compound?
Answer: > 100 µM (inactive)

Question: And the GI50 [31]?
Answer: > 100 µM (inactive)

Question: What about the GI50 [32] of the same compound?
Answer: 29.7 µM (inactive)

Question: And the GI50 [33]?
Answer: > 100 µM (inactive)

Question: What about the GI50 [34] of the same compound?
Answer: > 100 µM (inactive)

Question: What about the GI50 [35] of the same compound?
Answer: > 100 µM (inactive)

Question: And the GI50 [36]?
Answer: > 100 µM (inactive)

Question: What about the GI50 [37] of the same compound?
Answer: > 100 µM (inactive)

Question: What about the GI50 [38] of the same compound?
Answer: > 100 µM (inactive)

Question: And the GI50 [39]?
Answer: > 100 µM (inactive)

Question: What about the GI50 [40] of the same compound?
Answer: > 100 µM (inactive)

Question: And the GI50 [41]?
Answer: > 100 µM (inactive)

Question: What about the GI50 [42] of the same compound?
Answer: > 100 µM (inactive)

Question: What about the GI50 [43] of the same compound?
Answer: > 100 µM (inactive)

Question: And the GI50 [44]?
Answer: > 100 µM

Question: And the GI50 [45]?
Answer: > 100 µM (inactive)

Question: What about the GI50 [46] of the same compound?
Answer: > 100 µM (inactive)

Question: And the GI50 [47]?
Answer: > 100 µM (inactive)

Question: And the GI50 [48]?
Answer: > 100 µM (inactive)

Question: And the GI50 [49]?
Answer: > 100 µM (inactive)

Question: What about the GI50 [50] of the same compound?
Answer: > 100 µM (inactive)

Question: And the GI50 [51]?
Answer: > 100 µM (inactive)

Question: And the GI50 [52]?
Answer: > 100 µM (inactive)

Question: What about the GI50 [53] of the same compound?
Answer: > 100 µM (inactive)

Question: What about the GI50 [54] of the same compound?
Answer: > 100 µM (inactive)

Question: What about the GI50 [55] of the same compound?
Answer: > 100 µM (inactive)

Question: What about the GI50 [56] of the same compound?
Answer: > 100 µM (inactive)
